We go through 2 compounds from patent publication US20260248809A1, “ESTRADIOL PRODRUGS AND METHODS OF USE THEREOF” (UNIVERSITY OF MARYLAND, BALTIMORE, priority 2022, published 2026).

Experiment [1] relates to male mice. Description: Acquisition, extinction and reinstatement of cued (Pavlovian) fear. The class given is in vivo, mouse. The settings on record: non-stressed orchiectomized males, 10 mm silastic implant. The procedure:
Determine the role of E2 in the normal acquisition, extinction, and reinstatement of cued (Pavlovian) fear responses in males. The effect of orchiectomy on the acquisition, extinction, and reinstatement of fear in non-stressed male animals is determined. It has previously been reported that orchiectomy enhances tone conditioned freezing in male mice, which was prevented with systemic testosterone administration. It has also been reported that orchiectomy delayed extinction of fear responses in male rats. The role of E2 is known in mediating fear responses, extinction, and related cognitive functions in female rodents. Fear conditioning takes place in Coulbourn shuttle boxes. The floor of the chambers consists of parallel rods connected to a Coulbourn shock source that delivers foot shocks. A speaker mounted on the top of the chamber delivers an acoustic conditioned stimulus (pure tone). […] Mice are placed in the chamber for a 3 min habituation period, wherein baseline freezing to the novel context will be assessed. […] One week later, mice are assessed for reinstatement of the conditioned fear. […] Time spent freezing across CS presentations during the extinction procedure (Days 2 and 3) is assessed with Coulbourn automated FreezeFrame software. […] If differences between the groups are detected, then whether these effects are due to altered shock sensitivity, are assessed.

Experiment [2] has as its system male mice. As to the kind of experiment: Subthreshold social defeat stress followed by female urine sniffing test (anhedonia). The format is in vivo, mouse. The following applies: for stress-induced anhedonia: chronic treatment (silastic implant or minipump), orchiectomized male mice + SSDS; for anhedonia (female urine preference): orchiectomized male mice. Here is the method: Subthreshold social defeat stress: Retired CD1 breeders are singly housed and used as aggressors. Experimental mice are introduced to the home cage of an aggressor for 2 min to initiate the physical attack phase. Afterward, mice are transferred and housed on the opposite side of the aggressor, in the same cage separated by a perforated Plexiglass divider for 15 mins in order to maintain sensory contact. This process is repeated 3 times over a period of ~50 min.
Female Urine Preference Test: is performed 24 hours after the social interaction test as using previously described methods. The amount of time mice spent interacting with a cotton-tipped applicator soaked in either fresh male or female mouse urine during a total of 3 minutes is analyzed by an experimenter blind to the experimental groups.
For the chronic administration paradigms, silastic tubes (1.02 mm inner diameter×2.16 mm outer diameter) were filled with testosterone (10 mm) or 17β-Estradiol (E2; 1,3 and 10 mm; Sigma-Aldrich, St. Louis, MO, USA). Silastic implants were primed in 0.9% saline at 37° C. overnight prior to their subcutaneous use. Letrozole (1 mg/kg/day; Sigma-Aldrich, St. Louis, MO, USA) was dissolved in propylene glycol (MP Biomedicals, Santa Ana, CA, USA) and administered through ALZET minipumps (Model 1002, 0.25 μl/hour, 14 days; Cupertino, CA, USA). DHED (synthesized using previously described methods) was dissolved in 0.9% saline and administered through ALZET minipumps (Model 1002, 0.25 μl/hour, 14 days; Cupertino, CA, USA) at a dose of […]. Flutamide was administered through 1.5 mg slow-release subcutaneous pellets (Innovative Research of America, Sarasota, FL, USA). For acute administration, 17β-Estradiol (E2; 10 and […]) was dissolved in sesame oil (4 ml/kg, s.c.; Sigma-Aldrich, St. Louis, MO, USA).
Retired CD1 breeders were singly housed and used as aggressors. Two days prior to the start of the experiment, experimental mice were also singly housed. The stress procedure was performed using previously described methods. Briefly, experimental mice were introduced to the home cage of an aggressor for 2 min to initiate the physical attack phase. Afterward, mice were transferred and housed on the opposite side of the aggressor, in the same cage separated by a perforated Plexiglass divider for 15 mins in order to maintain sensory contact. This process was repeated 3 times over a period of ~50 min. Following the completion of the third cycle, mice were placed back in their home cages.
Acute E2 was administered 45 min prior to the initiation of stress or 5 min after the completion of stress. For the optogenetic stimulation, ChR2 and YFP-injected mice received a 4 Hz, 5 ms pulse width, 10-15 mW 470 nm light stimulation for 45 min prior to the initiation of stress. This stimulation paradigm was shown previously to increase synaptic transmission. The optogenetic set up consisted of an LED driver paired with a fiber-coupled LED light source attached to a bifurcated optogenetic path cable (400 μm, 0.49 NA; ThorLabs, Newton NJ, USA).
FUST procedure was performed 24 hours after the social interaction test and 48 hours after stress. FUST was performed using previously described methods. The amount of time mice spent interacting with a cotton-tipped applicator soaked in either fresh male or female mouse urine during a total of 3 minutes was analyzed by an experimenter blind to the experimental groups.

As to `C[C@]12CC[C@@H]3c4ccc(O)cc4CC[C@H]3[C@@H]1CC[C@@H]2O` [Example E2, 17β-Estradiol], in the experiment with male mice [1], the “orchiectomy-enhanced fear conditioning and reduced rate of extinction” value was “reverse this effect”. Besides, the stress-induced anhedonia result in the experiment with male mice [2] was “reversed”. The “anhedonia (female urine preference)” value is recorded as “reversed only the anhedonia phenotype” with male mice [2] (acute administration 5 min after SSDS) and “prevented” in the experiment with male mice [2] (acute s.c. administration 45 min prior to SSDS).

With `C[C@]12CC[C@H]3[C@@H](CCC4=CC(=O)CC[C@@]43C)[C@@H]1CC[C@@H]2O` [Testosterone, testosterone], the “orchiectomy-enhanced fear conditioning and reduced rate of extinction” value in the experiment with male mice [1] is “prevented by testosterone”. Besides, in the experiment on male mice [2], the stress-induced anhedonia entry is “reversed the observed maladaptive behaviors”.
